In patent US20210252025A1, “SYNERGIC PHARMACEUTICAL COMBINATION OF A SELECTIVE INHIBITOR OF CYCLOOXYGENASE-2 AND AN ANTHRAQUINONE DERIVATIVE” (priority 2018, published 2021):

Experiments:
[1] = system: rats with gout induced by intra-articular uric acid; assay: Pain-induced functional impairment model in the rat (PIFIR model), antinociceptive effects; assay type: in vivo, male Wistar rats
Procedure: The following compounds were employed: uric acid, celecoxib and diacerein, propylene glycol, carboxymethyl cellulose and mineral oil. The celecoxib and diacerein were dissolved in propylene glycol (5%) and carboxymethyl cellulose.
It started with determining the antinociceptive effects of the individual compounds to then go on to analyze the effects of the combination, employing the “Pain-induced functional impairment model in the rat” (“PIFIR model”). The animals were anesthetized in a glass desiccator, saturated with ether vapor. The gout was induced by applying an intra-articular injection (i.a.) of 0.05 ml of uric acid suspended in mineral oil at 30% in the right hind member, precisely in the femur-tibia-patella joint.
A 1 mL glass syringe with a 4-mm-long No. 22 needle was used for the intra-articular injection. Immediately afterwards, an electrode is attached to each hind paw (of the rats) in the middle of the plantar calluses. The rats were left to recover from the anesthesia and placed in a 30-cm-diameter rotary stainless-steel cylinder. The cylinder was turned at 4 r.p.m., forcing the rats to walk for 2 min every half hour, for a total of 6.5 hours, (2.5 h to generate the arthritis and 4 h for the assessment of antinociceptive effects. The variable measured was the contact time of each one of the rats' hind legs in the cylinder.
First it was decided to determine the range of doses that could form the celecoxib dose/response curve. […] The 50 mg/kg dose of diacerein has been determined to be a proper dose in the preclinical stage to be employed in combination and be able to determine if changes are produced in the antinociceptive effects.
Thus, the possible antinociceptive effects of both the individual and the combined forms of the compounds were determined and analyzed using animals with gout in the experimental model of Pain-induced functional impairment model in the rat. […]
After the uric acid was administered to the joint to produce the gout type impairment and alteration, there was a wait of 2.5 hours for the total impairment to be produced (the symptoms of gout were already complete at 2.5 hours after the uric acid was administered). This time (2.5 hours after the administration of the uric acid) was considered to be “0” time, for administering the treatment, at this moment, with the individual drugs and the drugs in combined form, followed by the temporary courses of each treatment being determined for the following 4 hours. […]
From the afore-described that corresponds to the experimental model of preclinical analysis of this combination of celecoxib with diacerein whose protection is being sought, the following results were obtained: The data are expressed as a percentage Functionality Index (FI %). […]

rats = assay: Assessment of toxic effects (lethality), oral
From the text: In order to determine possible antinociceptive effects and toxic effects, male Wistar rats [Crl:(WI)BR] were employed with a weight of between 180 and 200 g. All the experimental procedures followed the recommendations of the Committee for Research and Ethical Issues of the International Association for the Study of Pain and the Guidelines on Ethical Standards for Investigations of Experiment Pain in Animals. The number of animals for experimentation was kept to a minimum (6 animals per experimental point for antinociceptive effects and 10 animals per experimental point for adverse effects: lethality). The animals were kept in a room with alternating dark/light cycles. Twelve hours before the antinociception experiments, food was withdrawn from the rats, only leaving them free access to water. All the experiments were carried out during the light phase.
In the determinations presented for the individual drugs or drugs in combination, an attempt was made to administer the treatment on a single occasion but, when this was not possible owing to the high concentration and limits of solubility, several administrations were made with 3-hour time intervals. The established doses were always increased in logarithmic units administered orally both for celecoxib and for diacerein.
In the determinations presented below, the treatment was administered on a single occasion and, in the case of celecoxib, high doses in several administrations until the required dose is completed. The established doses were always increased in logarithmic units and administered orally.

[2] = cited from earlier work

Compound	maximum antinociceptive effectiveness (AUC of temporary courses, DRC) ([1]; celecoxib by itself, oral, acute administration, doses 3.2 to 1000 mg/kg, 4 h assessment, mean ± standard error, FIG. 2)	temporary courses of antinociceptive effect (FI %), dose dependence ([1]; oral, acute administration, 4 h, celecoxib 3.2 to 1000 mg/kg alone or with diacerein 50 mg/kg)	antinociceptive effects of chronic treatment compared with acute administration ([1]; oral, chronic (7 days) vs acute form)	dose that starts to generate effects of lethality at 24 hours (rats; oral, rats, 24 h post-treatment, FIG. 7)	dose that starts to generate effects of lethality at 48 hours (rats; oral, rats, 48 h post-treatment, FIG. 8)	dose that starts to generate effects of lethality at 72 hours (rats; oral, rats, 72 h post-treatment, FIG. 9)	binding to plasma proteins ([2]; in vivo)	time to maximum plasma concentration ([2]; oral)	antinociceptive effect (recovery of FI %) ([1]; 50 mg/kg oral doses, 4 h of assessment)	dose that starts to generate effects of lethality at 48 hours (rats; male, Wistar [Crl:(WI)BR], rat, in vivo, po, 48 h)	dose that starts to generate effects of lethality at 72 hours (rats; male, Wistar [Crl:(WI)BR], rat, in vivo, po, 72 h)	position of the DRC for the effects of lethality (rats; oral, rats, relative to the DRC of celecoxib by itself)
Cc1ccc(-c2cc(C(F)(F)F)nn2-c2ccc(S(N)(=O)=O)cc2)cc1 [celecoxib, 4-[5-(4-methylphenyl)-3-(trifluoromethyl)-1H-pyrazol-1-yl]benzenesulfonamide]	191.9±27.2 au	dose-dependent antinociceptive effects	better antinociceptive effects	17800 mg/kg	10000 mg/kg	5600 mg/kg	97%	around 3 hours	–	–	–	–
CC(=O)Oc1cccc2c1C(=O)c1c(OC(C)=O)cc(C(=O)O)cc1C2=O [diacerein, 4,5-Bis(acetyloxy)-9,10-dihydro-9,10-dioxo-2-anthracenecarboxylic acid]	–	–	–	–	–	–	–	–	did not show any antinociceptive effect whatsoever	1800 mg/kg	1000 mg/kg	more to the left of that of celecoxib
